In PubChem BioAssay (NCI):
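In this assay, cells in 96-well plates receive the compound at five concentrations for 48 hours. Endpoints are linearly interpolated between the surrounding concentrations. GI50 = concentration required for 50% inhibition of growth. TGI: concentration producing complete growth inhibition.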

What was measured:
Assay in all cases: growth of human tumour cells (NCI), 48 h
[1] = system: LOX IMVI melanoma
[2] = system: SK-MEL-5 melanoma
[3] = system: PC-3 prostate
[4] = system: OVCAR-3 ovarian
[5] = system: NCI-H226 lung
[6] = system: U251 CNS
[7] = system: SNB-19 CNS
[8] = system: CAKI-1 renal
[9] = system: A498 renal
[10] = system: COLO 205 colon

Row | Structure (SMILES) | GI50 [1] [µM] | TGI [1] [µM] | GI50 [2] [µM] | TGI [2] [µM] | GI50 [3] [µM] | TGI [3] [µM] | GI50 [4] [µM] | TGI [4] [µM] | GI50 [5] [µM] | TGI [5] [µM] | GI50 [6] [µM] | TGI [6] [µM] | GI50 [7] [µM] | TGI [7] [µM] | GI50 [8] [µM] | TGI [8] [µM] | GI50 [9] [µM] | TGI [9] [µM] | GI50 [10] [µM] | TGI [10] [µM]
1 | O=C1c2c(Cl)c(Cl)c(Cl)c(Cl)c2C(=O)C2(Cl)CC=CCC12Cl (centres undefined) | 1.21 | 2.56 | 1.77 | 3.79 | 1.8 | 3.51 | 2.02 | 3.48 | 1.97 | 4.88 | 1.67 | 3.06 | 1.64 | 3.01 | 1.93 | 3.68 | 12.7 | 25.3 | 1.52 | 2.89
2 | COc1cc(CCNC(=O)OC(C)(C)C)c2c(c1OC)SSSSS2 | 2.79 | 6.75 | 1.84 | 3.38 | 3.72 | 13.6 | 2.65 | 5.51 | 4.3 | 24.4 | 2.47 | 5.28 | 2.7 | 5.63 | 2.17 | 4.28 | 1.6 | 3.09 | 2.19 | 4.35
3 | O=c1oc2ccc(Br)cc2c(=O)n1-c1ccc(Cl)cc1F | 0.827 | 4.54 | 0.323 | 1.08 | 1.87 | 7.81 | 0.641 | 8.85 | 1.43 | 5.11 | 1.26 | > 39.2 | 0.506 | > 100 | 0.821 | 4.37 | 0.194 | 0.772 | 2.99 | 9.93
4 | NC(=O)c1cc(Br)ccc1NC(=O)/C=C/c1ccccc1 | 10.6 | > 100 | 0.608 | > 60.2 | 1.19 | > 100 | 0.887 | 4.21 | 6.93 | > 100 | 1.81 | > 43.4 | 5.36 | > 36.9 | 6.17 | > 100 | 1.66 | 11.7 | 1.23 | > 39.5
5 | O=C(c1ccccc1)c1nc2ccc(C(F)(F)F)cc2nc1N1CCN(c2ccccc2)CC1 | 18.5 | 38.4 | 15.9 | 32.7 | 47.1 | > 100 | 19.3 | 39.5 | 18.2 | 46.9 | 60.9 | > 100 | 71.5 | > 100 | 26.2 | 74.7 | 27.9 | 68.6 | 18.9 | 51.9
6 | C/C=C(\C)C(=O)O[C@H]1C=CC(=O)O[C@H]1COC(=O)[C@H](C)O | 3.59 | 14.8 | 4.62 | 16.7 | 11 | 28.9 | 3.44 | 14 | 12.4 | 31.5 | 7.35 | 21 | 12.1 | 27 | 5.46 | 14.9 | 15.7 | 31.4 | 3.07 | 15.5
7 | CCOC(=O)c1cc(NS(=O)(=O)c2ccc(C)cc2)cc(C(=O)OCC)c1 | 61.4 | > 100 | 31 | > 100 | 47.7 | > 100 | 34.5 | > 100 | 54 | > 100 | 51.3 | > 100 | 76.1 | > 100 | 43.5 | > 100 | 34.3 | > 100 | 36.1 | > 100
8 | CC1(C)CCC(C)(C)c2cc(NC(=O)c3ccc(C(=O)O)cc3)ccc21 | – | 48.3 | – | > 93.2 | – | > 70.6 | – | > 57.9 | – | > 79.5 | – | > 62.5 | – | 99.3 | – | 98.6 | – | 85.1 | – | > 55.9
9 | C=CC(=O)N1CC[C@H](n2nc(C#Cc3cc(OC)cc(OC)c3)c3c(N)ncnc32)C1 | 5.72 | > 100 | 9.57 | 67.8 | 11.3 | > 100 | 4.13 | > 100 | 6.42 | > 100 | 6.38 | > 100 | 7.66 | > 100 | 7.06 | > 100 | – | 1.6 | 15.8 | > 100
